Measurements as given in patent US20260185118A1 (priority 2023, published 2026).

System: Diaphorina citri Kuwayama
Format: in vivo
Details: solution at 1 μg/L in n-hexane applied to citrus leaves, compared to solvent n-hexane, 40 min

Compound	effect on Diaphorina citri Kuwayama selection preference
(E)-β-farnesene	significant repulsive effect
C=C1CC/C=C(\C)CC[C@@H]2[C@@H]1CC2(C)C [β-caryophyllene]	significant repulsive effect
